Consider two molecules from article PMC4013825 (Journal of biomolecular screening, 2014).

The target in test [1] is T1, SERCA2a (sarco/endoplasmic reticulum calcium ATPase) (Canis lupus, UniProt O46674). The test can be described thus: live-cell intramolecular FRET lifetime dose-response. The format is cell-based.
Test [2] deals with T1, SERCA2a (sarco/endoplasmic reticulum calcium ATPase). The description is as above. The format is cell-based. This is another data set of the same source.

SMILES strings stand for the structures.

T1 sequence (O46674 whole entry): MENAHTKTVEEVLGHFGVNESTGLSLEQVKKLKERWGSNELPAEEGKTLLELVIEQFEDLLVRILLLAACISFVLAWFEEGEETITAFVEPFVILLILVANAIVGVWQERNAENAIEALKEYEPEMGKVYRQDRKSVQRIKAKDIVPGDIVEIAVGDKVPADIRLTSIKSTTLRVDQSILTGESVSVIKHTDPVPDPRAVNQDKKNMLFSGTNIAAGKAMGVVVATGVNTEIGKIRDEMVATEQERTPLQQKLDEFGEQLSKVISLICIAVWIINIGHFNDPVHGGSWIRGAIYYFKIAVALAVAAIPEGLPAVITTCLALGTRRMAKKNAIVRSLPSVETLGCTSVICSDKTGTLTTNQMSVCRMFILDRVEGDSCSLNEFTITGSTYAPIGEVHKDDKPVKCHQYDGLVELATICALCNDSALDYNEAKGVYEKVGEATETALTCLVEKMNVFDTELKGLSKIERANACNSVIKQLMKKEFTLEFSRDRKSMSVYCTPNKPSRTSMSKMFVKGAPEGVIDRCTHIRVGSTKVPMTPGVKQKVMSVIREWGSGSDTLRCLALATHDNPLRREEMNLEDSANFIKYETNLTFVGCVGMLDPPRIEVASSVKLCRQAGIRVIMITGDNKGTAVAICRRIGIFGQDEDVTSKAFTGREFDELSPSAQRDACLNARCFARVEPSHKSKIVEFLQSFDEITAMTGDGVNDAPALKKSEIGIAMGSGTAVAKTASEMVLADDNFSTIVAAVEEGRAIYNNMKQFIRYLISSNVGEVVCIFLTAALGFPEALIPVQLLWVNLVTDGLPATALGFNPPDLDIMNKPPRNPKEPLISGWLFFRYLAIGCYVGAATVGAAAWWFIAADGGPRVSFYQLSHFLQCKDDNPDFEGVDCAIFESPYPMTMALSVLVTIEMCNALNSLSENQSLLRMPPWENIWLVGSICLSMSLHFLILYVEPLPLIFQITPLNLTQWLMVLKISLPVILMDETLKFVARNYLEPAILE

The term Kd denotes the free concentration of one partner at which half of the binding sites on the other are occupied at equilibrium, for simple one-to-one binding. Consider `CC(=O)C1=C(O)[C@@H]2[C@H]3c4c[nH]c5cccc(c45)C[C@H]3C(C)(C)N2C1=O` [CPA, cyclopiazonic acid], for which the Kd in test [1] was around 40 nM.

Consider `C/C=C(/C)C(=O)O[C@H]1C(C)=C2[C@H]([C@@H]1OC(=O)CCCCCCC)[C@@](C)(OC(C)=O)C[C@H](OC(=O)CCC)[C@@]1(O)[C@H]2OC(=O)[C@@]1(C)O` [TG, thapsigargin], for which the “live-cell intramolecular FRET lifetime dose-response; ATPase inhibition in pig c” value in test [2] stood at 7.5 nM.
